In ChEMBL document CHEMBL5034037, “Synthesis, Characterization, and Preclinical Evaluation of a Small-Molecule Prostate-Specific Membrane Antigen-Targeted Monomethyl Auristatin E Conjugate” (J Med Chem, 2021):
Calls of active or inactive are those of the source. The rule behind the calls is not given here. *1 amine or outer side, *2 acyl side, *3 side chain or, on linkers, in order; H or OH if unused. Where a SMILES comes first, the peptide text is derived from it. [ ]: non-standard residue; d: D form. The star is where a group is joined. GluureaLys(ε-3-ClBenzyl) = O=C(O)CC[C@H](NC(=O)N[C@@H](CCCCN(Cc1cccc(Cl)c1)*)C(=O)O)C(=O)O; Dolaproine = CO[C@@H]([C@@H]1CCCN1)[C@@H](C)C(=O)O; Dil = CC[C@H](C)[C@H](NC)[C@@H](CC(=O)O)OC; X1 = O=C(CCCc1cn(CCCN[*:1])nn1)[*:2]; PABC = O=C(OCc1ccc(N[*:1])cc1)[*:2]; X2 = C[C@@H](N*)[C@@H](O)c1ccccc1; Cit = NC(=O)NCCC[C@H](N)C(=O)O; Suc = O=C(CCC(=O)[*:2])[*:1]; NMeV = CN[C@H](C(=O)O)C(C)C; Ahx = NCCCCCC(=O)O

Legend:
[1] = Chronic toxicity in rat assessed as diarrhea at 10 microg/kg, iv; details: in vivo, 0.01 mg/kg, dose 10 µg/kg
[2] = Toxicity in rat assessed as morphological changes in abdominal cavity at 150 to 225 microg/kg, iv; details: in vivo, dose 150-225 µg/kg
[3] = system: Salmonella typhimurium; experiment: Mutagenecity in Salmonella typhimurium TA100 in presence of metabolic activation system at 100 ug/ml by Ames test; format: toxicity, organism-based; details: salmonella enterica subsp. enterica serovar typhimurium; dose 100 µg/ml
[4] = Toxicity in rat assessed as morphological changes in testes at 150 to 225 microg/kg, iv; details: in vivo, dose 150-225 µg/kg
[5] = Acute toxicity in iv dosed Wistar rat assessed as maximum tolerated dose; format: organism-based; details: in vivo, read-out: MNTD
[6] = Stability of compound at pH 5.6 assessed as recombinant cathepsin B mediated hydrolysis by measuring MMAE release by HPLC-MS analysis; format: physicochemical; details: buffer
[7] = system: Salmonella typhimurium; experiment: Mutagenecity in Salmonella typhimurium TA98 without metabolic activation system at 1000 ug/ml by Ames test; format: toxicity, organism-based; details: salmonella enterica subsp. enterica serovar typhimurium; dose 1000 µg/ml
[8] = molecular target: Cytochrome P450 2C19 (Homo sapiens, UniProt P33261); experiment: Inhibition of CYP2C19 in human liver microsome using mephenytoin as substrate; format: ADME, microsomes
[9] = Toxicity in rat assessed as morphological changes in liver at 150 to 225 microg/kg, iv; format: tissue-based; details: in vivo, dose 150-225 µg/kg
[10] = molecular target: T1, Cytochrome P450 2B6 (Homo sapiens, UniProt P20813); experiment: Drug metabolism assessed as human liver microsome CYP2B6-mediatd metabolism; format: ADME; details: microsomes
T1 sequence (P20813 whole entry): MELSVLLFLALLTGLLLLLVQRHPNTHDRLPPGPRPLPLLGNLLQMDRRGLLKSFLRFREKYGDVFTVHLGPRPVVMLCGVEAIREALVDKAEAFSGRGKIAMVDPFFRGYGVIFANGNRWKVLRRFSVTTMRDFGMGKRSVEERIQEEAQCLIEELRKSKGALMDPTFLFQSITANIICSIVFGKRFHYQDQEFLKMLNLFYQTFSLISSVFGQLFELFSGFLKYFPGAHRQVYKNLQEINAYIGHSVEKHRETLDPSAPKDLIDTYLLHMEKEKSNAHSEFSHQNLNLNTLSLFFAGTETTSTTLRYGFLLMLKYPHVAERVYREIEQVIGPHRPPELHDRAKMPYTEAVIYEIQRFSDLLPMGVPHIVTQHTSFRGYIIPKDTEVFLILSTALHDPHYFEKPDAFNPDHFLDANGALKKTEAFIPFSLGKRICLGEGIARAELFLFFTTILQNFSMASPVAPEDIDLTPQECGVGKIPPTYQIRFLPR

[11] = system: CWR22R; experiment: Induction of intracellular reactive oxygen species production in human 22Rv1 cells incubated for 1 hr measured at CC50 concentration by amperometric method; format: functional, cell-based
[12] = Mean residence time (0 to t) in Wistar rat at 1.5 mg/kg, iv; format: ADME, organism-based; details: in vivo
[13] = Elimination rate constant in rabbit at 0.81 mg/kg, iv; format: ADME, organism-based, Oryctolagus cuniculus; details: in vivo
[14] = Toxicity in rat assessed as morphological changes in diameter of aorta at 150 to 225 microg/kg, iv; format: tissue-based; details: in vivo, dose 150-225 µg/kg
[15] = system: Salmonella typhimurium; experiment: Mutagenecity in Salmonella typhimurium TA100 in presence of metabolic activation system at 1000 ug/ml by Ames test; format: toxicity, organism-based; details: salmonella enterica subsp. enterica serovar typhimurium; dose 1000 µg/ml
[16] = Toxicity in rabbit assessed as morphological changes in peritoneum at 81 to 122 microg/kg, iv; format: tissue-based, Oryctolagus cuniculus; details: in vivo, dose 81-122 µg/kg
[17] = Toxicity in rat assessed as morphological changes in mucosa of trachea at 150 to 225 microg/kg, iv; format: tissue-based; details: in vivo, dose 150-225 µg/kg
[18] = Toxicity in rabbit assessed as morphological changes in kidney at 81 to 122 microg/kg, iv; format: tissue-based, Oryctolagus cuniculus; details: in vivo, dose 81-122 µg/kg
[19] = Toxicity in rabbit assessed as morphological changes in diameter of aorta at 81 to 122 microg/kg, iv; format: tissue-based, Oryctolagus cuniculus; details: in vivo, dose 81-122 µg/kg
[20] = Toxicity in rabbit assessed as morphological changes in gastric wall mucosa at 81 to 122 microg/kg, iv; set-up: species or system Oryctolagus cuniculus; details: in vivo, dose 81-122 µg/kg
[21] = Clearance in Wistar rat at 1.5 mg/kg, iv; format: ADME, organism-based; details: in vivo
[22] = Toxicity in rabbit assessed as morphological changes in heart muscle at 81 to 122 microg/kg, iv; format: tissue-based, Oryctolagus cuniculus; details: in vivo, dose 81-122 µg/kg
[23] = molecular target: Cytochrome P450 3A4 (Homo sapiens, UniProt P08684); experiment: Drug metabolism assessed as human liver microsome CYP3A4-mediatd metabolism; format: ADME; details: microsomes
[24] = Toxicity in rat assessed as morphological changes in spleen pulp at 150 to 225 microg/kg, iv; format: tissue-based; details: in vivo, dose 150-225 µg/kg
[25] = Toxicity in rabbit assessed as morphological changes in heart at 81 to 122 microg/kg, iv; format: tissue-based, Oryctolagus cuniculus; details: in vivo, dose 81-122 µg/kg
[26] = system: Salmonella typhimurium; experiment: Mutagenecity in Salmonella typhimurium TA98 in presence of metabolic activation system at 10 ug/ml by Ames test; format: toxicity, organism-based; details: salmonella enterica subsp. enterica serovar typhimurium; dose 10 µg/ml
[27] = molecular target: Cytochrome P450 2D6 (Homo sapiens, UniProt P10635); experiment: Inhibition of CYP2D6 in human liver microsome using dextromethorphan as substrate; format: ADME, microsomes
[28] = Toxicity in rabbit assessed as morphological changes in brain ventricle at 81 to 122 microg/kg, iv; format: tissue-based, Oryctolagus cuniculus; details: in vivo, dose 81-122 µg/kg
[29] = Toxicity in rabbit assessed as morphological changes in aortic intima at 81 to 122 microg/kg, iv; set-up: species or system Oryctolagus cuniculus; details: in vivo, dose 81-122 µg/kg
[30] = Stability of compound in pH 5.5 assessed as hydrolysis measured within 96 hrs; format: physicochemical; details: buffer, pH 5.5, 96 h
[31] = Toxicity in rat assessed as morphological changes in spleen at 150 to 225 microg/kg, iv; format: tissue-based; details: in vivo, dose 150-225 µg/kg
[32] = Toxicity in rat assessed as morphological changes in duodenum at 150 to 225 microg/kg, iv; format: tissue-based; details: in vivo, dose 150-225 µg/kg
[33] = Ratio of AUC (t to infinity) to AUC (0 to infinity) in rat at 1.5 mg/kg, iv; format: ADME, organism-based; details: in vivo
[34] = Toxicity in rabbit assessed as morphological changes in abdominal cavity at 81 to 122 microg/kg, iv; set-up: species or system Oryctolagus cuniculus; details: in vivo, dose 81-122 µg/kg
[35] = Toxicity in rabbit assessed as morphological changes in capsule of the kidney at 81 to 122 microg/kg, iv; format: tissue-based, Oryctolagus cuniculus; details: in vivo, dose 81-122 µg/kg
[36] = Acute toxicity in iv dosed ICR mouse assessed as maximum tolerated dose; format: organism-based; details: in vivo, read-out: MNTD
[37] = Toxicity in rat assessed as morphological changes in tongue at 150 to 225 microg/kg, iv; format: tissue-based; details: in vivo, dose 150-225 µg/kg
[38] = Toxicity in rabbit assessed as morphological changes in cerebrum at 81 to 122 microg/kg, iv; format: tissue-based, Oryctolagus cuniculus; details: in vivo, dose 81-122 µg/kg
[39] = AUC (0 to t) in rabbit at 0.81 mg/kg, iv; format: ADME, organism-based, Oryctolagus cuniculus; set-up: dose 0.81 mg/kg; details: in vivo
[40] = system: Salmonella typhimurium; experiment: Mutagenecity in Salmonella typhimurium TA100 without metabolic activation system at 1 ug/ml by Ames test; format: toxicity, organism-based; details: salmonella enterica subsp. enterica serovar typhimurium; dose 1 µg/ml
[41] = Toxicity in rabbit assessed as morphological changes in mucosa of trachea at 81 to 122 microg/kg, iv; format: tissue-based, Oryctolagus cuniculus; details: in vivo, dose 81-122 µg/kg
[42] = molecular target: Cathepsin B (Homo sapiens, UniProt P07858); experiment: Stability of compound assessed as recombinant cathepsin B (unknown origin) mediated hydrolysis; format: ADME

Sequence of Cytochrome P450 2C19 (P33261 whole entry): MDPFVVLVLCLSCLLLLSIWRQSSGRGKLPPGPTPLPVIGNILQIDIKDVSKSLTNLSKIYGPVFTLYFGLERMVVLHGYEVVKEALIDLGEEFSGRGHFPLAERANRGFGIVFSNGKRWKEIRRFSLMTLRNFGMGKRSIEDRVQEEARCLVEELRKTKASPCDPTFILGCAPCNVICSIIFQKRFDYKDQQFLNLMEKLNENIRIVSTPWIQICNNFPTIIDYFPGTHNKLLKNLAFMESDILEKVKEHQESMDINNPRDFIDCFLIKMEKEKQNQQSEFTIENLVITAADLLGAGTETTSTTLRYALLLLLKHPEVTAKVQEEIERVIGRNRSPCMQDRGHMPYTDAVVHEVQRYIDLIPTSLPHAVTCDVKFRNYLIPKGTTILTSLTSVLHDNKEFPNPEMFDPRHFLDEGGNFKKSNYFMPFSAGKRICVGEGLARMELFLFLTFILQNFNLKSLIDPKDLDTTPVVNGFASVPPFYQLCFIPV
Sequence of Cytochrome P450 3A4 (P08684 whole entry): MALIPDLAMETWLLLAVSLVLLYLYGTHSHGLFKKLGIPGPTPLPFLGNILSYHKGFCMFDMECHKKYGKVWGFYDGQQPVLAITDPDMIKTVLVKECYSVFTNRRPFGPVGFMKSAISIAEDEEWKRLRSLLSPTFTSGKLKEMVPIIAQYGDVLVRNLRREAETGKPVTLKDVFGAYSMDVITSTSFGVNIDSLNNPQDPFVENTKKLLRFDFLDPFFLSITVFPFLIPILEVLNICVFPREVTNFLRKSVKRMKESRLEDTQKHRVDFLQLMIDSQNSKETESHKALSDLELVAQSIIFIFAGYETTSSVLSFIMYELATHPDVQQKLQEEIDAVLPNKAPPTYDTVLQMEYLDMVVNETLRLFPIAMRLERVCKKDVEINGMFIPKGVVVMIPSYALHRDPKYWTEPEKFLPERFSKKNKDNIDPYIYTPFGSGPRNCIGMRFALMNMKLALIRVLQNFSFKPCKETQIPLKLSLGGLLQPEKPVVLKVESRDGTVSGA
Sequence of Cytochrome P450 2D6 (P10635 whole entry): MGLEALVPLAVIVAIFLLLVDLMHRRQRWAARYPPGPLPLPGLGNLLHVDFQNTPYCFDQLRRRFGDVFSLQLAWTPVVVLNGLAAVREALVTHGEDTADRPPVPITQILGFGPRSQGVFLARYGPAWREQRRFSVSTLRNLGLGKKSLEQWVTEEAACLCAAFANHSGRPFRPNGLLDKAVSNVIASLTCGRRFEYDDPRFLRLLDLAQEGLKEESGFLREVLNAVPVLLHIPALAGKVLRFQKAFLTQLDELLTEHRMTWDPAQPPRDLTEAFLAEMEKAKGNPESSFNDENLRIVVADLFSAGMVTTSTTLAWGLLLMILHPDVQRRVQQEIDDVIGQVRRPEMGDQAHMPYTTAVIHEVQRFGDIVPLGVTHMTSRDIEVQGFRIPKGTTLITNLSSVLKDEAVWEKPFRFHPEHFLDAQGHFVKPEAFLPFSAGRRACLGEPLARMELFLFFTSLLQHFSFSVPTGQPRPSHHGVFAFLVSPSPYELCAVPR

SMILES: CC[C@H](C)[C@@H]([C@@H](CC(=O)N1CCC[C@H]1[C@H](OC)[C@@H](C)C(=O)N[C@H](C)[C@@H](O)c1ccccc1)OC)N(C)C(=O)[C@@H](NC(=O)[C@H](C(C)C)N(C)C(=O)OCc1ccc(NC(=O)[C@H](CCCNC(N)=O)NC(=O)[C@@H](NC(=O)CCCc2cn(CCCNC(=O)[C@H](Cc3ccc(O)cc3)NC(=O)[C@H](Cc3ccccc3)NC(=O)CCC(=O)NCCCCCC(=O)N(CCCC[C@H](NC(=O)N[C@@H](CCC(=O)O)C(=O)O)C(=O)O)Cc3cccc(Cl)c3)nn2)C(C)C)cc1)C(C)C ({GluureaLys(ε-3-ClBenzyl)-Ahx-Suc}-FY[X1]V[Cit][PABC][NMeV]V[Dil][Dolaproine]-X2)
- Activity [1]: Toxic
- Activity [2]: Non-Toxic
- Activity [3]: Non-Toxic
- Activity [4]: Non-Toxic
- MTD [5]: 4 mg/kg
- Stability [6]: Unstable
- Activity [7]: Non-Toxic
- IC50 [8]: > 25 µM
- Activity [9]: Non-Toxic
- Drug metabolism [10]: Metabolite_Notdetected
- Activity [11]: Active
- MRT last [12]: 3.8 h
- k el [13]: 4.72e-05 s⁻¹
- Activity [14]: Non-Toxic
- Activity [15]: Non-Toxic
- Activity [16]: Non-Toxic
- Activity [17]: Non-Toxic
- Activity [18]: Non-Toxic
- Activity [19]: Non-Toxic
- Activity [20]: Non-Toxic
- clearance [21]: 0.317 mL/min/kg
- Activity [22]: Non-Toxic
- Drug metabolism [23]: Metabolite_Notdetected
- Activity [24]: Non-Toxic
- Activity [25]: Non-Toxic
- Activity [26]: Non-Toxic
- IC50 [27]: > 25 µM
- Activity [28]: Non-Toxic
- Activity [29]: Non-Toxic
- Stability [30]: Stable
- Activity [31]: Non-Toxic
- Activity [32]: Non-Toxic
- Ratio [33]: 14%
- Activity [34]: Non-Toxic
- Activity [35]: Non-Toxic
- MTD [36]: 3 mg/kg
- Activity [37]: Non-Toxic
- Activity [38]: Non-Toxic
- AUC(0-t) [39]: 31000 ng·h/mL
- Activity [40]: Non-Toxic
- Activity [41]: Non-Toxic
- Stability [42]: Stable
